{"source": "patent US8772348B2", "about": "“Materials and methods for pest control” (priority 2009, dated 2014)", "key": {"[1]": {"test_system": "Susceptible Musca domestica", "assay": "Glass jar contact bioassay, susceptible (laboratory) house flies", "procedure": "Briefly, adult house flies, Musca domestica, are obtained from strains that have been reared in the laboratory of the Entomology and Nematology Department, University of Florida. […] The positive control is exposed to serial dilutions of permethrin. The negative control is not exposed to any chemical compound. The mortality rate is measured after 2-hour, 4-hour, and 24-hour periods. Ataxic flies are considered dead.\n(§1) The ability of house flies to recover from insecticidal exposure is also investigated. After a 2-hour exposure, each set of flies is transferred into a separate glass jar. The mortality rate is measured at two time intervals: first, immediately at the transfer (2 hours after the initial exposure), and second, 22 hours after the transfer (24 hours after the initial exposure).\nThe mortality rate is analyzed using the PROBIT model. The data is adjusted based on the mortality rate in the control set using the Abbott's transformation, and the percent mortality is further analyzed based on ANOVA measurement. The experiment is repeated at least three times. The data is discarded if the mortality rate in the control set exceeds 10%. The LC50 and LC90 values are further determined using the SAS (Cary, N.C., USA) statistical software. For each chemical compound, at least 1280 flies are examined."}, "[2]": {"test_system": "Field-collected Musca domestica", "procedure": "Briefly, one Musca domestica strain is collected from the University of Florida dairy unit in Alachua County, Florida, U.S.A. (“the Alachua strain”). The other Musca domestica strain is collected from a dairy farm in Gilchrist County, Florida, U.S.A. (“the Gilchrist strain”). Both strains are colonized adults, and are subsequently reared at 27° C. in the laboratory of the Entomology and Nematology Department, University of Florida.\nThe positive control is exposed to serial dilutions of permethrin. The negative control is not exposed to any chemical compound. 1 mL of insecticide was dissolved in acetone (concentrations between 0.5 and 20 mg mL^−1) in a 60 mL glass jar having a 67.86 cm^2 inside surface area (Wheaton, Millville, N.J.). Jars were allowed to dry for 1 h prior to fly introduction. Flies were held in jars for 2, 4 and 24 h, and fly mortality rate was scored at that time. Sugar water (10%) was provided in all assays, unless stated otherwise. The mortality rate is measured after a 2-hour, 4-hour, and 24-hour period. Ataxic flies are considered dead. The mortality rate and the LC values are determined using the same procedures as is illustrated in Example 2."}, "Aedes aegypti [3]": {"test_system": "Aedes aegypti", "details": "On filter paper", "procedure": "Briefly, yellow fever mosquito, Ae. aegypti were obtained from strains that have been cultured in the laboratory of the Entomology and Nematology Department, University of Florida.\n(§2) The mortality rate is measured after a 2-hour, 4-hour and 24-hour exposure period. Ataxic mosquitoes are considered dead.\nas §1, with “Ae. aegypti” for “house flies”, “Ae. aegypti” for “flies”, “separate” for “separate glass”"}, "Aedes aegypti [4]": {"test_system": "Aedes aegypti", "details": "On camouflage military fabric", "procedure": "as §2\nas §1, with “Ae. aegypti” for “house flies”, “Ae. aegypti” for “flies”, “separate” for “separate glass”\nThe mortality rate and the LC values are determined using the same procedures as is illustrated in Example 2."}, "Musca domestica [5]": {"test_system": "Musca domestica", "details": "M. domestica; formulation on plywood panels at 1.67 mg cm^−2; mortality 24 h after", "procedure": "(§3) Briefly, each fly strain is divided into eight sets: three sets as the experiment, four sets as the positive control, and one set as the negative control. Flies are assayed on unpainted plywood panel boards that have been previously exposed to natural summer weather conditions for at least 10 days. […] The positive control set is treated with permethrin, geranyl acetone, rosalva or citronellol. The negative control set is treated with water. The formulation is applied at a uniform rate of 7.5 ml per 225 cm^2, sufficient to cover the entire panel without dripping. Subsequently, the treated panel boards are dried for about an hour.\n(§4) In each set, 20 adult flies are placed onto the panel boards. Flies are secured with wooden embroidery hoops, covered with a coarse mesh screen cloth previously sprayed with the respective formulation. After 4 hours, flies are transferred into a clean jar. The mortality rate is measured 24 hours after the transfer, and is determined using the same procedures as are illustrated in Example 2.\n(§5) Plywood panels (225 cm^2) were treated with chemicals at a rate of 1.67 mgcm^−2. Panels were treated on day 0 and held until exposure on post-treatment day. Mosquitoes were exposed to chemicals for 2 h, and mortality rate was assessed 24 h after initial exposure. Control contained formulation ingredients without semiochemicals."}, "Stomoxys calcitrans": {"test_system": "Stomoxys calcitrans", "details": "S. calcitrans; formulation on plywood panels at 1.67 mg cm^−2; mortality 24 h after", "procedure": "as §3, §4, §5"}, "Musca domestica [6]": {"test_system": "Musca domestica", "details": "formulation on plywood panels, 3.33 mg cm^−2 (footnote 1.67), 2 h exposure, mortality 24 h after", "procedure": "Briefly, after Musca domestica is exposed to formulations at concentration of 3.33 mg cm^−2 for 2 hours, each set is transferred into a separate glass jar, and held for another 24 hours.\nas §5, with “of 1.67 mg cm^−2. Panels were” for “of 1.67 mgcm^−2. Panels were”, “0 and was held until” for “0 and held until”"}, "Aedes aegypti [7]": {"test_system": "Aedes aegypti", "details": "formulation on plywood panels at 1.67 mg cm^−2, 2 h exposure, mortality 24 h after initial exposure", "procedure": "Briefly, after mosquitoes are assayed on unpainted plywood panel boards with formulation at a concentration of 1.67 mg cm^−2 for 2 hours, they are transferred into a separate glass jar, and held for another 24 hours. The mortality rate is measured daily for a continuous 4 days (Day 1 starts at 24 hours after the transfer), as is determined using the same procedures as are illustrated in Example 2.\nas §5, with “of 1.67 mg cm^−2. Panels were” for “of 1.67 mgcm^−2. Panels were”, “0 and was held until” for “0 and held until”"}, "[8]": {"details": "2 h constant exposure, glass jar"}, "[9]": {"details": "2 h exposure, transferred to clean jars, mortality 24 h after initial exposure"}, "[10]": {"details": "4 h constant exposure, glass jar"}, "[11]": {"details": "24 h constant exposure, glass jar"}, "[12]": {"details": "Alachua strain, 2 h constant exposure"}, "[13]": {"details": "Alachua strain, 4 h constant exposure"}, "[14]": {"details": "Alachua strain, 24 h constant exposure"}, "[15]": {"details": "Gilchrist strain, 2 h constant exposure"}, "[16]": {"details": "Gilchrist strain, 4 h constant exposure"}, "[17]": {"details": "Gilchrist strain, 24 h constant exposure"}, "[18]": {"details": "2 h exposure then transferred, mortality 24 h after initial exposure"}}, "note": "Where two headings read alike, the source gives them in different places.", "data": [{"substance": "permethrin [reference compound]", "values": [{"measurement": "LC50", "setting": "[1]; [8]", "value": 0.18, "unit": "μg cm^−2"}, {"measurement": "LC90", "setting": "[1]; [8]", "value": 1.20, "unit": "μg cm^−2"}, {"measurement": "LC50", "setting": "[1]; [9]", "value": 0.58, "unit": "μg cm^−2"}, {"measurement": "LC90", "setting": "[1]; [9]", "value": 3.56, "unit": "μg cm^−2"}, {"measurement": "decline in toxicity after a 24-hour holding period subsequent to an initial 2-hour exposure", "setting": "[1]; 2 h transferred vs 2 h constant", "value": "~3", "unit": "fold"}, {"measurement": "LC50", "setting": "[1]; [10]", "value": 0.10, "unit": "μg cm^−2"}, {"measurement": "LC90", "setting": "[1]; [10]", "value": 0.95, "unit": "μg cm^−2"}, {"measurement": "LC50", "setting": "[1]; [11]", "value": 0.03, "unit": "μg cm^−2"}, {"measurement": "LC90", "setting": "[1]; [11]", "value": 0.41, "unit": "μg cm^−2"}, {"measurement": "LC50", "setting": "[2]; [12]", "value": 4.61, "unit": "μg cm^−2"}, {"measurement": "LC90", "setting": "[2]; [12]", "value": 14.86, "unit": "μg cm^−2"}, {"measurement": "LC50", "setting": "[2]; [13]", "value": 4.10, "unit": "μg cm^−2"}, {"measurement": "LC90", "setting": "[2]; [13]", "value": 15.85, "unit": "μg cm^−2"}, {"measurement": "LC50", "setting": "[2]; [14]", "value": 0.99, "unit": "μg cm^−2"}, {"measurement": "LC90", "setting": "[2]; [14]", "value": 3.78, "unit": "μg cm^−2"}, {"measurement": "LC50", "setting": "[2]; [15]", "value": 0.41, "unit": "μg cm^−2"}, {"measurement": "LC90", "setting": "[2]; [15]", "value": 1.82, "unit": "μg cm^−2"}, {"measurement": "LC50", "setting": "[2]; [16]", "value": 0.39, "unit": "μg cm^−2"}, {"measurement": "LC90", "setting": "[2]; [16]", "value": 1.51, "unit": "μg cm^−2"}, {"measurement": "LC50", "setting": "[2]; [17]", "value": 0.16, "unit": "μg cm^−2"}, {"measurement": "LC90", "setting": "[2]; [17]", "value": 0.85, "unit": "μg cm^−2"}, {"measurement": "LC50", "setting": "Aedes aegypti [3]; 2 h constant exposure", "value": 0.02, "unit": "μg cm^−2"}, {"measurement": "LC50", "setting": "Aedes aegypti [3]; [18]", "value": 0.04, "unit": "μg cm^−2"}, {"measurement": "LC50", "setting": "Aedes aegypti [3]; 4 h constant exposure", "value": 0.0018, "unit": "μg cm^−2"}, {"measurement": "LC50", "setting": "Aedes aegypti [3]; 24 hr constant exposure", "value": 0.00045, "unit": "μg cm^−2"}, {"measurement": "LC50", "setting": "Aedes aegypti [4]; 2 h constant exposure", "value": 0.012, "unit": "μg cm^−2"}, {"measurement": "LC50", "setting": "Aedes aegypti [4]; [18]", "value": 0.45, "unit": "μg cm^−2"}, {"measurement": "LC50", "setting": "Aedes aegypti [4]; 4 h constant exposure", "value": 0.0009, "unit": "μg cm^−2"}, {"measurement": "LC50", "setting": "Aedes aegypti [4]; 24 hr constant exposure", "value": 0.00031, "unit": "μg cm^−2"}, {"measurement": "% mortality", "setting": "Musca domestica [5]", "value": 88.40, "unit": "a %"}, {"measurement": "% mortality", "setting": "Stomoxys calcitrans", "value": 100.00, "unit": "a %"}, {"measurement": "% mortality on various days following treatment", "setting": "Musca domestica [6]; day 1", "value": 100.00, "unit": "a %"}, {"measurement": "% mortality on various days following treatment", "setting": "Musca domestica [6]; day 2", "value": 90.50, "unit": "a %"}, {"measurement": "% mortality on various days following treatment", "setting": "Musca domestica [6]; day 3", "value": 97.50, "unit": "a %"}, {"measurement": "% mortality on various days following treatment", "setting": "Musca domestica [6]; day 5", "value": 97.50, "unit": "a %"}, {"measurement": "% mortality on various days following treatment", "setting": "Musca domestica [6]; day 7", "value": 97.50, "unit": "a %"}, {"measurement": "% mortality on various days following treatment", "setting": "Musca domestica [6]; day 14", "value": 67.00, "unit": "a %"}, {"measurement": "% mortality on various days following treatment", "setting": "Aedes aegypti [7]; day 1", "value": 100.00, "unit": "a %"}, {"measurement": "% mortality on various days following treatment", "setting": "Aedes aegypti [7]; day 2", "value": 99.00, "unit": "a %"}, {"measurement": "% mortality on various days following treatment", "setting": "Aedes aegypti [7]; day 3", "value": 98.0, "unit": "a %"}, {"measurement": "% mortality on various days following treatment", "setting": "Aedes aegypti [7]; day 4", "value": 96.50, "unit": "a %"}]}]}
